Target: T1, human CGRP receptor (Homo sapiens, UniProt O60894+Q16602)
T1 construct: SK-N-MC cells that endogenously express the human CGRP receptor; endogenous in cells; host or cells: SK-N-MC cells (membrane homogenates)
Assay: Radioligand binding assay, [125I]-CGRP competition on SK-N-MC cell homogenates
Conditions: Binding data, [125I]-CGRP 40 pM, room temperature
Method: Tissue culture. SK-N-MC cells were grown at 37° C. in 5% CO2 as a monolayer in medium consisting of MEM with Earle's salts and L-glutamine (Gibco) supplemented with 10% fetal bovine serum (Gibco).
Radioligand binding assays. Cells were rinsed twice with phosphate-buffered saline (155 mM NaCl, 3.3 mM Na2HPO4, 1.1 mM KH2PO4, pH 7.4), and incubated for 5-10 min. at 4° C. in hypotonic lysis buffer consisting of 10 mM Tris (pH 7.4) and 5 mM EDTA. Cells were transferred from plates to polypropylene tubes (16×100 mm), homogenized and centrifuged at 32,000×g for 30 min. Pellets were resuspended in buffer consisting of 50 mM Tris (pH 7.4) and 1 mM EDTA, homogenized, and centrifuged again at 32,000×g for 30 min. Pellets were resuspended in 100 mM Tris-Cl pH 7.5, 10 mM MgCl2, 0.1% mammalian protease inhibitor cocktail (Sigma) and stored at −80° C. until needed. On the day of an experiment, homogenates were thawed and homogenized again. Binding of [^125I]-CGRP (NEN) was carried out in buffer containing 50 mM Tris-Cl pH 7.5, 5 mM MgCl2, 0.5% BSA. Homogenates (3.5 μg protein/well) were incubated with competitor compounds (solubilized in 100% DMSO at 100× their final assay concentrations) for one hour at room temperature. Then [^125I]-CGRP was added (40 pM final concentration) and the reaction incubated for one additional hour at room temperature. Assays were stopped by addition of cold wash buffer (20 mM Tris-Cl pH 7.5, 0.1% BSA) immediately followed by filtration over glass fiber filters (Whatman GF/B) previously soaked in 0.5% PEI. Non-specific binding was defined with 100 nM CGRP.

Going from `CC(=O)c1ccc(NC(=O)N2CCC(=O)N3[C@@H]2CN(CCc2cccc(F)c2)C(=O)[C@@H]3Cc2ccc([N+](=O)[O-])cc2)cc1` [Compound 27, (6S,9aS)-8-[2-(3-Fluoro-phenyl)-ethyl]-6-(4-nitro-benzyl)-4,7-dioxo-hexahydro-pyrazino[1,2-a]pyrimidine-1-carboxylic acid (4-acetyl-phenyl)-amide] to `CC(=O)c1ccc(NC(=O)N2CCC(=O)N3[C@@H]2CN(CCc2cccc(F)c2)C(=O)[C@@H]3Cc2cc(F)cc(F)c2)cc1` [Compound 55, (6S,9aS)-6-(3,5-Difluoro-benzyl)-8-[2-(3-fluoro-phenyl)-ethyl]-4,7-dioxo-hexahydro-pyrazino[1,2-a]pyrimidine-1-carboxylic acid (4-acetyl-phenyl)-amide], the IC50 falls from 1330 nM to 400 nM (3.3-fold).

Going from `CC(=O)c1ccc(NC(=O)N2CCC(=O)N3[C@@H](c4ccc(F)cc4F)C(=O)N(CCc4cccc(F)c4)C[C@H]23)cc1` [Compound 153, (6S,9aS)-6-(2,4-Difluoro-phenyl)-8-[2-(3-fluoro-phenyl)-ethyl]-4,7-dioxo-hexahydro-pyrazino[1,2-a]pyrimidine-1-carboxylic acid (4-acetyl-phenyl)-amide] to `CC(=O)c1ccc(NC(=O)N2CCC(=O)N3[C@@H](c4ccc(F)c(F)c4)C(=O)N(CCc4cccc(F)c4)C[C@H]23)cc1` [Compound 151, 6-(3,4-Difluoro-phenyl)-8-[2-(3-fluoro-phenyl)-ethyl]-4,7-dioxo-hexahydro-pyrazino [1,2-a]pyrimidine-1-carboxylic acid (4-acetyl-phenyl)-amide], the IC50 falls from 320 nM to 39 nM (8.2-fold). The second is the more potent here.

`CC(=O)c1ccc(NC(=O)N2CCC(=O)N3[C@@H](c4ccccc4)C(=O)N(CCc4cccc(F)c4)C[C@H]23)cc1` [Compound 46, (6S,9aS)-8-[2-(3-Fluoro-phenyl)-ethyl]-4,7-dioxo-6-phenyl-hexahydro-pyrazino[1,2-a]pyrimidine-1-carboxylic acid (4-acetyl-phenyl)-amide] and `CC(=O)c1ccc(NC(=O)N2CCC(=O)N3[C@@H](c4cccc(F)c4)C(=O)N(CCc4cccc(F)c4)C[C@H]23)cc1` [Compound 152, (6S,9aS)-6-(3-Fluoro-phenyl)-8-[2-(3-fluoro-phenyl)-ethyl]-4,7-dioxo-hexahydro-pyrazino[1,2-a]pyrimidine-1-carboxylic acid (4-acetyl-phenyl)-amide] are within 1.5-fold of each other in IC50: 167 nM for the first, 159 nM for the second.

First: CC(O)c1ccc(NC(=O)N2CCC(=O)N3[C@@H]2CN(CCc2ccccc2)C(=O)[C@@H]3CC2CCCCC2)cc1 (stereo partly drawn) [Compound 145, (6S,9aS)-6-Cyclohexylmethyl-4,7-dioxo-8-phenethyl-hexahydro-pyrazino[1,2-a]pyrimidine-1-carboxylic acid [4-(1-hydroxy-ethyl)-phenyl]-amide]
Second: CC(=O)c1ccc(OC(=O)N2CCC(=O)N3[C@@H]2CN(CCc2ccccc2)C(=O)[C@@H]3CC2CCCCC2)cc1C [Compound 146, (6S,9aS)-6-Cyclohexylmethyl-4,7-dioxo-8-phenethyl-hexahydro-pyrazino[1,2-a]pyrimidine-1-carboxylic acid 4-acetyl-3-methyl-phenyl ester]
The IC50 of the first is 7.5-fold higher: 2730 nM for the first, 364 nM for the second. The second is the more potent here.

Going from `CC(=O)c1ccc(OC(=O)N2CCC(=O)N3[C@@H](C4CCCCC4)C(=O)N(CCc4ccccc4)C[C@H]23)cc1C` [Compound 148, (6S,9aS)-6-Cyclohexyl-4,7-dioxo-8-phenethyl-hexahydro-pyrazino[1,2-a]pyrimidine-1-carboxylic acid 4-acetyl-3-methyl-phenyl ester] to `CC(=O)c1ccc(NC(=O)N2CCC(=O)N3[C@@H](C4CCCCC4)C(=O)N(CCc4ccccc4Cl)C[C@H]23)cc1` [Compound 116, (6S,9aS)-8-[2-(2-Chloro-phenyl)-ethyl]-6-cyclohexyl-4,7-dioxo-hexahydro-pyrazino[1,2-a]pyrimidine-1-carboxylic acid (4-acetyl-phenyl)-amide], the IC50 falls from 3900 nM to 2580 nM (1.5-fold).

First: CC(=O)c1ccc(NC(=O)N2CCC(=O)N3[C@@H](C(C)C)C(=O)N(CCc4cccc(F)c4)C[C@H]23)cc1 [Compound 20, (6S,9aS)-8-[2-(3-Fluoro-phenyl)-ethyl]-6-isopropyl-4,7-dioxo-hexahydro-pyrazino[1,2-a]pyrimidine-1-carboxylic acid (4-acetyl-phenyl)-amide]
Second: CC(=O)c1ccc(NC(=O)N2CCC(=O)N3[C@@H]2CN(CCc2cccc(F)c2)C(=O)[C@@H]3CCS(C)(=O)=O)cc1 [Compound 36, (6S,9aS)-8-[2-(3-Fluoro-phenyl)-ethyl]-6-(2-methanesulfonyl-ethyl)-4,7-dioxo-hexahydro-pyrazino[1,2-a]pyrimidine-1-carboxylic acid (4-acetyl-phenyl)-amide]
The IC50 of the first is 2.6-fold higher: 907 nM for the first, 350 nM for the second. The second is the more potent here.

Going from `CC(=O)c1ccc(NC(=O)N2CCC(=O)N3[C@@H]2CN(CCc2cccc(F)c2)C(=O)[C@@H]3Cc2cncn2C)cc1` [Compound 54, (6S,9aS)-8-[2-(3-Fluoro-phenyl)-ethyl]-6-(3-methyl-3H-imidazol-4-ylmethyl)-4,7-dioxo-hexahydro-pyrazino[1,2-a]pyrimidine-1-carboxylic acid (4-acetyl-phenyl)-amide] to `CC(=O)c1ccc(NC(=O)N2CCC(=O)N3[C@@H]2CN(CCc2cccc(F)c2)C(=O)[C@@H]3CC(=O)OCc2ccccc2)cc1` [Compound 30, {1-(4-Acetyl-phenylcarbamoyl)-(6S,9aS)-8-[2-(3-fluoro-phenyl)-ethyl]-4,7-dioxo-octahydro-pyrazino [1,2-a]pyrimidin-6-yl}-acetic acid benzyl ester], the IC50 rises from 1270 nM to 2210 nM (1.7-fold).

For `CC(=O)c1ccc(NC(=O)N2CCC(=O)N3[C@@H]2CN(CCc2cccc(F)c2)C(=O)[C@@H]3Cc2ccc(OCc3ccccc3)cc2)cc1` [Compound 33, (6S,9aS)-6-(4-Benzyloxy-benzyl)-8-[2-(3-fluoro-phenyl)-ethyl]-4,7-dioxo-hexahydro-pyrazino[1,2-a]pyrimidine-1-carboxylic acid (4-acetyl-phenyl)-amide], the IC50 was 2260 nM.
